Experimental data: patent US9487529B2, “Macrocyclic compounds as ALK, FAK and JAK2 inhibitors” (Cephalon, Inc., priority 2011, dated 2016)
Read-outs that look alike come from different tables or passages of the source.

Columns and labels:
[1] = from C=Cc1ccc(N(C)S(C)(=O)=O)c(Nc2nc(Nc3cc(Br)c(N4CCN(C)CC4)cc3OC)ncc2Cl)c1; cc_pd bond; Pd(OAc)2 / tri-o-tolylphosphine, Et3N; CH3CN; 46.7 mM; 120.0 °C; 0.25 h
recombinant human FAK = molecular target: T1, recombinant human FAK (Homo sapiens, UniProt Q05397); test: FAK Enzyme Assay (TRF detection); format: biochemical; details: 10 μM ATP
T1 construct: purchased Invitrogen PV3832; host or cells: baculovirus expression system
T1 sequence (Q05397 whole entry): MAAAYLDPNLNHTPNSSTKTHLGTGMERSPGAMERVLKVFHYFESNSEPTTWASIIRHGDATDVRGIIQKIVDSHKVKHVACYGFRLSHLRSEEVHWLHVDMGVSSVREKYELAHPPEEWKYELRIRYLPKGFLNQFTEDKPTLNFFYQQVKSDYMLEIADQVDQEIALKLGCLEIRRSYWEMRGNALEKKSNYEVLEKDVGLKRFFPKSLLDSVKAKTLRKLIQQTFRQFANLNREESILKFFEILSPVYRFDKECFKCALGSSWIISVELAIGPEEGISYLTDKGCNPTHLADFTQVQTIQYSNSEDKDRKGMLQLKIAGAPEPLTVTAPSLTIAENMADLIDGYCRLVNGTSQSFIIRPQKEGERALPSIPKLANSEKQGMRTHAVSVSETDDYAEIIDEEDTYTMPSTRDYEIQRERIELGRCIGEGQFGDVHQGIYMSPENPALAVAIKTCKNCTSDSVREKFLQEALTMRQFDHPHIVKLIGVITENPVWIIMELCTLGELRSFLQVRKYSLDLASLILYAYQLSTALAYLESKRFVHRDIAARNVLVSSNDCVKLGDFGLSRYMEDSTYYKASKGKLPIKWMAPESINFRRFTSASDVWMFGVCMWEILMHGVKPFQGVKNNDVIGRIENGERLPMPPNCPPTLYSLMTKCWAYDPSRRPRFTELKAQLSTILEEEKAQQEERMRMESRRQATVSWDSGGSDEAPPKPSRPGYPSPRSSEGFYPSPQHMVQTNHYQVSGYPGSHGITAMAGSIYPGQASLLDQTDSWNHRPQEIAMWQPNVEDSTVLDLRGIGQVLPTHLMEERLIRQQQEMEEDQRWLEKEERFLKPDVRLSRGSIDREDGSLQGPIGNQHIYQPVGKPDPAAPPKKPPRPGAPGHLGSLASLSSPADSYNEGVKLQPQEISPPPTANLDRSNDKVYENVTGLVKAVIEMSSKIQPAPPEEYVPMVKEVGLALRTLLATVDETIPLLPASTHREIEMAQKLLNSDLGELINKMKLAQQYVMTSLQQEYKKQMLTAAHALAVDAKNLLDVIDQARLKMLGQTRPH
Procedure: Example compounds were tested for their ability to inhibit the kinase activity of baculovirus-expressed recombinant human FAK using the TRF detection system as described above for JAK2. IC50 runs were performed in 96-well Costar high binding plates (#3922). The plates were coated first with 100 μL/well of 10 μg/mL neutravidin in TBS at 37° C. for 2 h, followed by 100 μL/well of 1 μg/mL 15-mer peptide substrate (biotinyl-amino-hexanoyl-EQEDEPEGDYFEWLE-amide) at 37° C. for another hour. The FAK assay mixture (total volume=100 μL/well) consisting of 20 mM HEPES, pH 7.2, 10 μM ATP, 5 mM MgCl2, 0.5 mM DTT, 0.1% BSA, and test compound (diluted in DMSO; 2.5% DMSO final in assay) was then added to the assay plate. Enzyme (10 ng/mL FAK, Invitrogen #PV3832) was added and the reaction was allowed to proceed at room temperature for 30 minutes. Detection of the phosphorylated product was performed by adding 100 μL/well of Eu—N1 labeled PY100 antibody (diluted 1:75000 in antibody dilution buffer). Samples were incubated at room temperature for 1 hour, followed by addition of 100 μL enhancement solution. Plates were agitated for 10 minutes and fluorescence of the resulting solution measured using the PerkinElmer EnVision™ 2102 (or 2104) multi-label plate reader.
(§1) Data analysis was performed using ActivityBase (IDBS, Guilford, UK). IC50 values were calculated by plotting percent inhibition versus log10 of the concentration of compound and fitting to the nonlinear regression sigmoidal dose-response (variable slope) equation in XLFit (IDBS, Guilford, UK).

[2] = molecular target: T2, human insulin receptor cytoplasmic domain (βIRCD) (Homo sapiens, UniProt P06213); test: Insulin Receptor Kinase Assay (TRF); format: biochemical; details: 20 μM ATP, read-out: IR IC50
T2 construct: human insulin receptor cytoplasmic domain (βIRCD); host or cells: baculovirus expression system
T2 sequence (P06213 980-1382 limits assumed): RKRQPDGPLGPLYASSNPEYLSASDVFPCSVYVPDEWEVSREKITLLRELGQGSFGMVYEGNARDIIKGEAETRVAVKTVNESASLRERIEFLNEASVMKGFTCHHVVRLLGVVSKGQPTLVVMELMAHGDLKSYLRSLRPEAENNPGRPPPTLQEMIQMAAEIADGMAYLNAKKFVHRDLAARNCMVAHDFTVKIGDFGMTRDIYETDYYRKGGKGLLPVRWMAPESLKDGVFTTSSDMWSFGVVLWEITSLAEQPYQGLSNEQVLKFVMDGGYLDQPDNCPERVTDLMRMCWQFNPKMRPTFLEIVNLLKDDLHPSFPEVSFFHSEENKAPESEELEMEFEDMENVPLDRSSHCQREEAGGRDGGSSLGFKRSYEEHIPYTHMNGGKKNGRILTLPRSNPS
Procedure: Example compounds were tested for their ability to inhibit the kinase activity of baculovirus-expressed human insulin receptor cytoplasmic domain (βIRCD) using the TRF assay as described above for ALK. Phosphorylation of the substrate, recombinant GST-PLC-γ, was detected with a europium-labeled anti-phosphotyrosine antibody and measured by TRF. Each 96-well plate (Greiner#655074) was coated with 100 μL/well of 20 μg/mL substrate solution in TBS. The IR assay mixture (total volume=100 μL/well) consisting of 20 mM HEPES (pH 7.2), 20 μM ATP, 5 mM MnCl2, 0.1% BSA, and test compound (diluted in DMSO; 2.5% DMSO final in assay) was added to the assay plates. Enzyme (20 ng/mL βIRCD) was added and the reaction was allowed to proceed at room temperature for 20 minutes. Detection of the phosphorylated product was performed by adding 100 μL/well of Eu—N1 labeled PY100 antibody (PerkinElmer#AD0160; diluted 1:10,000 in TBS-T containing 0.25% BSA). Incubation at 37° C. for 1 hour was followed by addition of 50 μL enhancement solution (Wallace#1244-105). Plates were agitated for 10 minutes and the fluorescence was measured using the PerkinElmer EnVision™ 2102 or 2104 multi-label plate reader.
as §1

[3] = molecular target: T3, baculovirus-expressed ALK (Homo sapiens, UniProt Q9UM73); test: ALK Kinase Assay (ELISA/TRF); format: biochemical; details: 1 μM ATP (Km level); average of two or more determinations; class symbols
T3 construct: host or cells: baculovirus expression system
T3 sequence (Q9UM73 19-1620): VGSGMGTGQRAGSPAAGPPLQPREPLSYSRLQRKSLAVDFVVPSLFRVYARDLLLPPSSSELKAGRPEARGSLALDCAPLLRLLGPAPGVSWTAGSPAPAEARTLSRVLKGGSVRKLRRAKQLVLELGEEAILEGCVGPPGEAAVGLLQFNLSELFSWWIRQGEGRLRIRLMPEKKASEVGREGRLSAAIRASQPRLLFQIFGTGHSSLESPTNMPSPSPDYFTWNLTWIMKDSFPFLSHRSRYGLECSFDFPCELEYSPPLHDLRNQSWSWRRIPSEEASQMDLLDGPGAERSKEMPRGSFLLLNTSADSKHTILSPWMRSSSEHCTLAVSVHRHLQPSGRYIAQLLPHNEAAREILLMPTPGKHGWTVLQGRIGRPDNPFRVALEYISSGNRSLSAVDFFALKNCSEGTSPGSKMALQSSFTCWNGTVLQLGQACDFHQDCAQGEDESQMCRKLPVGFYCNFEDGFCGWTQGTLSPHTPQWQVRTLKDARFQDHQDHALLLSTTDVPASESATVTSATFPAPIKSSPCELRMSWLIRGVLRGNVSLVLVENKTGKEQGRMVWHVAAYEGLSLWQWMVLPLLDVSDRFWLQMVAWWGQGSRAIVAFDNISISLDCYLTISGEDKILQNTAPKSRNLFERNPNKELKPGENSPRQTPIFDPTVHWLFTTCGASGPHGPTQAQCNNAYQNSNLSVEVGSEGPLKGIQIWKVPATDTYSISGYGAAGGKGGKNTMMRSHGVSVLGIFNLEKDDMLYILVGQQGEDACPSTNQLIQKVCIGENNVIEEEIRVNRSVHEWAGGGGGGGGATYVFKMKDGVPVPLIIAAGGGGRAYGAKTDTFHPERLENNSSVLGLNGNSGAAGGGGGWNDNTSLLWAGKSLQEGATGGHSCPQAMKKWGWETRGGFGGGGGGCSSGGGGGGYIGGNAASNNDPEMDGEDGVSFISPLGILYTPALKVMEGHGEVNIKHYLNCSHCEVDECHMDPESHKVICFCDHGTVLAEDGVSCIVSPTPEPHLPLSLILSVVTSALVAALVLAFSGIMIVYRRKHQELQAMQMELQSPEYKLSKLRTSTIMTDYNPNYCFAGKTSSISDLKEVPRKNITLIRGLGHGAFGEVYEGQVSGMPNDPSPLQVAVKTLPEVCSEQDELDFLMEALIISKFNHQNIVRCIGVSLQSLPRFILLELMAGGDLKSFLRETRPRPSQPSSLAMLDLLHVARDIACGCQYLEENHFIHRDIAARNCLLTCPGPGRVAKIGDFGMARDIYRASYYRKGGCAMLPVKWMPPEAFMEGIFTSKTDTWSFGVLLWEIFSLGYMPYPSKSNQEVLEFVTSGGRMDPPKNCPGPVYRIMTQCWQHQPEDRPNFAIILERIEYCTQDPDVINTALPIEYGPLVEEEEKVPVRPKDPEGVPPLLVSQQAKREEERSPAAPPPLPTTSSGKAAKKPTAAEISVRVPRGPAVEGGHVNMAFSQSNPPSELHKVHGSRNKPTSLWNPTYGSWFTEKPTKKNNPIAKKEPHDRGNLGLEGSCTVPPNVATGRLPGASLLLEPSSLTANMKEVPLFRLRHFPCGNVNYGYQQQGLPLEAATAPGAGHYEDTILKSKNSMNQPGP
Procedure: Briefly, each 96-well plate was coated with 100 μL/well of 10 μg/mL substrate (GST-PLC-γ) in Tris-buffered saline (TBS). […] The reaction was initiated by adding enzyme (30 ng/mL ALK) and was allowed to proceed at 37° C. for 15 minutes. Detection of the phosphorylated product was performed by adding 100 μL/well of Eu—N1 labeled PT66 antibody (Perkin Elmer #AD0041). […] Data analysis was performed using ActivityBase (IDBS, Guilford, UK). IC50 values were calculated by plotting percent inhibition versus log10 of the concentration of compound and fitting to the nonlinear regression sigmoidal dose-response (variable slope) equation in XLFit (IDBS, Guilford, UK).

[4] = molecular target: T4, baculovirus-expressed JAK2 (Homo sapiens, UniProt O60674); test: JAK2 Kinase Assay (TRF detection); format: biochemical; details: 0.2 μM ATP; average of two or more determinations; class symbols
T4 construct: host or cells: baculovirus expression system
T4 sequence (O60674 whole entry): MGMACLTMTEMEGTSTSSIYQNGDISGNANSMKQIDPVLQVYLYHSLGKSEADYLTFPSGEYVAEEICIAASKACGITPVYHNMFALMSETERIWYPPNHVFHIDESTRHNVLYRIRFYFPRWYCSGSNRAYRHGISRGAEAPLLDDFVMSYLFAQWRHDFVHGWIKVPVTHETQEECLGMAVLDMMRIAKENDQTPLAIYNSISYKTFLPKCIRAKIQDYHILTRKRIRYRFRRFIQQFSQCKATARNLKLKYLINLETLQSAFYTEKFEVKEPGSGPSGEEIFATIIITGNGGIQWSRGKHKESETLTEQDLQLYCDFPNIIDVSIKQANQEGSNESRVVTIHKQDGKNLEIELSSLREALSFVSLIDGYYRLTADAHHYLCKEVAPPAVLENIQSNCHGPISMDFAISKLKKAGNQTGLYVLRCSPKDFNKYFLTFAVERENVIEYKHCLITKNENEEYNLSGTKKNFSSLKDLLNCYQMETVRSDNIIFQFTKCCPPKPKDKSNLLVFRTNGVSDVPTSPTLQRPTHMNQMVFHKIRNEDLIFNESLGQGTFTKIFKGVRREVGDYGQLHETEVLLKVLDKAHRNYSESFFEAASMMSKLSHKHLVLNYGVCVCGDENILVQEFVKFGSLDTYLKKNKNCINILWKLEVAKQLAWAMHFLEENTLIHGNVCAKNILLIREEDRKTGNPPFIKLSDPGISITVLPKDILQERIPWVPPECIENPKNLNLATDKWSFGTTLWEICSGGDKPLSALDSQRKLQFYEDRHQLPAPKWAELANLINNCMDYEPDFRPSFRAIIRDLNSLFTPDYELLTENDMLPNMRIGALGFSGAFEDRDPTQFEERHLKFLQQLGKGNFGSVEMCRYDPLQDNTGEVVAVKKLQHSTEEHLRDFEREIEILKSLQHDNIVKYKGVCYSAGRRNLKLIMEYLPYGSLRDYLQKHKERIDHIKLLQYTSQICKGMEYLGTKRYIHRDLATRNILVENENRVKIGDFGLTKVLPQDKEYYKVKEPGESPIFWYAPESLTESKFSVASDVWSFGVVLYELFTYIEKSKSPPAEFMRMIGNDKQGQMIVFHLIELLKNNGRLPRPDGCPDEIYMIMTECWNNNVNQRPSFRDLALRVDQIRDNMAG
Procedure: Compounds were tested for their ability to inhibit the kinase activity of baculovirus-expressed JAK2 using the TRF detection system. IC50 runs were conducted in 96-well Costar high binding plates (Corning Costar #3922, Corning, N.Y.). The plates were coated first with 100 μL/well of 10 μg/mL Neutravidin (Pierce #31000, Rockford, Ill.) in TBS at 37° C. for 2 hours, followed by 100 μL/well of 1 μg/mL 15-mer peptide substrate (biotinyl-amino-hexanoyl-EQEDEPEGDYFEWLE-amide, Infinity Biotech Research and Resource, Aston, Pa.) at 37° C. for another hour. The JAK2 assay mixture (total volume=100 μL/well) consisting of 20 mM HEPES, pH 7.2, 0.2 μM ATP, 1 mM MnCl2, 0.1% BSA, and test compound (diluted in DMSO; 2.5% DMSO final in assay) was then added to the assay plate. Enzyme (15 ng/ml JAK2) was added and the reaction was allowed to proceed at room temperature for 20 minutes. Detection of the phosphorylated product was performed by adding 100 μL/well of Eu—N1 labeled PY100 antibody (PerkinElmer Life Sciences #AD0041, Boston, Mass.). Incubation at the room temperature then proceeded for 1 hour, followed by addition of 100 μl enhancement solution (PerkinElmer Life Sciences #1244-105, Boston, Mass.). The plate was gently agitated and after thirty minutes, the fluorescence of the resulting solution was measured using the PerkinElmer EnVision™ 2102 (or 2104) multi-label plate reader.
as §1

[5] = average of two or more determinations, class symbols

COc1cc(N2CCN(C)CC2)c2cc1Nc1ncc(Cl)c(n1)Nc1cc(ccc1N(C)S(C)(=O)=O)/C=C\2 [Example 4, (14Z)-6-Chloro-10-(2-methanesulfonyl-methyl-amino)-17-(4-methylpiperazin-1-yl)-19-methoxy-2,4,8,22-tetraazatetracyclo[14.3.1.1^3,7.1^9,13]docosa-1(20),3(22),4,6,9(21),10,12,14,16,18-decaene]
ring closure, yield of all isomers [1]: 72%
IC50 (recombinant human FAK; [5]): < 10 nM
IC50 (recombinant human FAK; given as numeric bound): > 3000 nM
IC50 [2, 5]: 1000 to 10000 nM
IC50 ([2]; given as numeric bound): > 2000 nM
melting point: 278 to 280 °C

COc1cc(C2CCN(C)CC2)c2cc1Nc1ncc(Cl)c(n1)Nc1cc(ccc1N(C)S(C)(=O)=O)/C=C\2 [Example 7, (14Z)-6-Chloro-10-(2-methanesulfonyl-methyl-amino)-17-(1-methyl-piperidin-4-yl)-19-methoxy-2,4,8,22-tetraazatetracyclo[14.3.1.1^3,7.1^9,13]docosa-1(20),3(22),4,6,9(21),10,12,14,16,18-decaene]
IC50 (recombinant human FAK; [5]): < 10 nM
IC50 [3]: 10 to 100 nM
IC50 [4]: 1000 to 10000 nM
IC50 ([2]; given as numeric bound): > 2000 nM
melting point: 244 to 246 °C

CC(C)S(=O)(=O)c1ccc2cc1Nc1nc(ncc1Cl)Nc1ccc(N3CCN(C)CC3)c(c1)CC2 [Example 12, 6-Chloro-10-(propane-2-sulfonyl)-17-(4-methylpiperazin-1-yl)-2,4,8,22-tetraazatetracyclo[14.3.1.1^3,7.1^9,13]docosa-1(20),3(22),4,6,9(21),10,12,16,18-nonaene]
IC50 (recombinant human FAK; [5]): < 10 nM
IC50 [4]: < 10 nM
IC50 [2, 5]: 10 to 100 nM
melting point: > 250 °C

CN1CCN(c2ccc3cc2CCc2ccc(S(C)(=O)=O)c(c2)Nc2nc(ncc2Cl)N3)CC1 [Example 19, 6-Chloro-10-(methanesulfonyl)-17-(4-methylpiperazin-1-yl)-2,4,8,22-tetraazatetracyclo[14.3.1.1^3,7.1^9,13]docosa-1(20),3(22),4,6,9(21),10,12,16,18-nonaene]
IC50 (recombinant human FAK; [5]): 10 to 100 nM
IC50 [3]: 10 to 100 nM
IC50 [4]: 10 to 100 nM
IC50 [2, 5]: 101 to 1000 nM
melting point: > 250 °C
